Reference: patent publication US4238508A, “Method for analgesia using 3-hydroxyacetanilide” (The Research Foundation of State University of New York, priority 1979, dated 1980)

Tests used:
in vivo = assay: in vivo; design: species or system white mice; settings: mouse; for survival at 96 h: ip
Procedure: ^(a) Mortality determined at 96 hours, all drugs given
intraperitoneally dissolved in saline at 42° C.
receiving same mg dose or saline controls and all acetaminophen groups p
<0.005 using chi square test.

liver [1] = assay: Gross appearance of livers of mice that died after injection; settings: white mice
Procedure: Doses of 400, 600 and 900 milligrams per kilogram of 3-hydroxyacetanilide, of acetaminophen and of normal saline control were administered to white mice.

liver glutathione = assay: Effect on liver glutathione levels in mice; assay type: in vivo, mouse; settings: 600 mg/kg i.p.; for Depletion of mouse liver glutathione: two hours; for Liver glutathione level: two hours after injection, saline 8.2 ± 0.9
Procedure: A number of mice were given doses of acetaminophen and 3-hydroxyacetanilideat levels of 600 mg/kg of body weight and a number of mice were given normal saline as a control. […] All values were determined at two hours after intraperitoneal drug injection.

[2] = system: plasma glutamate-pyruvate transaminase (GPT); assay: Plasma glutamate-pyruvate transaminase (GPT) activity in mice; assay type: in vivo; settings: for Effect on transaminase activity: 600 mg/kg acetaminophen, 900 mg/kg 3-hydroxyacetanilide; for Transaminase activity in plasma, Mean ± SD: saline 32 ± 18
Procedure: (§1) The relative effects of 3-hydroxyacetanilide and acetaminophen were compared on plasma glutamate-pyruvate transaminase (GPT) activity. 600 mg/kg of acetaminophen were used in the test; whereas, a larger quantity, 900 mg/kg, of 3-hydroxyacetanilide was used. […] Activity was measured spectrophotometrically at room temperature using a Sigma® Enzyme Kit. The activity is expressed in micromoles per minute per […] of plasma. The blood for the test was collected in a small amount of heparin. Assays were performed within two hours after obtaining the blood. […] There appears to be a correlation between drug dose, amounts of necrosis seen histologically and elevation of transaminase levels.

liver [3] = assay: Hepatic necrosis; assay type: in vivo, mice; settings: compared with acetaminophen
Procedure: as §1

[4] = Mouse writhing test with 1% acetic acid; assay type: in vivo; settings: for Writhes per 5 Minute (SD): 30 minutes prior to test, control 23.2 ± 5.3
Procedure: To test the effectiveness of 3-hydroxyacetanilide as an analgesic when compared to acetaminophen, a mouse writhing test was used wherein 1% acetic acid is given intraperitoneally 5 minutes prior to counting abdominal writhes made by the animal. The dose of the 1% […] is 0.01 cc/gm of body weight. Prior to counting the writhes, acetaminophen and 3-hydroxyacetanilide were given subcutaneously 30 minutes prior to the test. The control was given normal saline. […] This example therefore illustrates that 3-hydroxyacetanilide is unexpectedly as good an analgesic in this test as acetaminophen and should therefore be used in dosages similar to the dosages known to be effective for actaminophen and since it has almost the same analgesic effect in mice as acetaminophen, it would be expected to have the same analgesic effect as acetaminophen in other mammals.

[5] = British Pat. No. 1,006,558; cited from earlier work
[6] = Roberts and Jollow; cited from earlier work
[7] = system: plasma glutamate-pyruvate transaminase (GPT); settings: mice, acetaminophen-induced hepatic injury; cited from earlier work
liver [8] = settings: acetaminophen-induced hepatic injury, mice; cited from earlier work

SMILES | Mortality compared with a comparable dose of acetaminophen (in vivo) | survival at 96 h (in vivo; 400 mg/kg) [%] | survival at 96 h (in vivo; 600 mg/kg) [%] | survival at 96 h (in vivo; 900 mg/kg) [%] | Gross appearance of liver in mice which died (liver [1]) | Depletion of mouse liver glutathione (liver glutathione) | Liver glutathione level (liver glutathione) [mg/gram liver] | Effect on transaminase activity [2] | Transaminase activity in plasma, Mean ± SD ([2]; 900 mg/kg, n 17) [IU/ml Plasma] | Elevation in plasma GPT activity ([2]; 900 mg/kg, up to 48 hours after treatment) | Hepatic necrosis (liver [3]) | Writhes per 5 Minute (SD) ([4]; 200 mg/kg s.c.) | Writhes per 5 Minute (SD) ([4]; 400 mg/kg s.c.) | Analgesic effect compared with acetaminophen ([4]; s.c., 200 and 400 mg/kg) | Reduction of the number of writhes per 5 minutes ([4]; s.c., 200 and 400 mg/kg) | Anti-pyretic activity [5] | Hepatotoxicity relative to acetaminophen [6] | Transaminase activity in plasma, Mean ± SD ([2]; 600 mg/kg, n 9) [IU/ml Plasma] | Time of maximum plasma transaminase levels after dose [7] | Hepatic injury, histology (liver [8])
CC(=O)Nc1cccc(O)c1 [3-hydroxyacetanilide] | considerably less mortality | 96 | 96 | 91 | no significant gross abnormality of the liver | much less depletion | 6.2 ± 1.2 | much less effect | 23 ± 5 | No significant elevation | did not cause a similar level of hepatic necrosis | 11.6 ± 8.1 | 1.3 ± 1.4 | statistically insignificant differences | effectively reduced the number of writhes per 5 minutes | has anti-pyretic activity | substantially less hepatotoxic than acetaminophen | – | – | –
CC(=O)Nc1ccc(O)cc1 [Acetaminophen, 4-hydroxyacetanilide, reference compound] | – | 40 | 20 | 20 | large and grossly congested in appearance | rapid depletion | 2.4 ± 0.6 | drastically affects the transaminase activity | – | – | – | 10.0 ± 6.2 | 3.5 ± 4.0 | – | effectively reduced the number of writhes per 5 minutes | – | – | 1834 ± 771 | approximately 6 hours | centrilobular necrosis
